Test results reported in ChEMBL document CHEMBL1152288, “Characterization of thien-2-yl 1S,2R-milnacipran analogues as potent norepinephrine/serotonin transporter inhibitors for the treatment of neuropathic pain” (J Med Chem, 2008).
Calls of active or inactive are those of the source. The rule behind the calls is not given here.

Assays:
in vitro = conditions: human, Caco-2
Description: Apparent permeability from apical to basolateral side of the human Caco-2 cells

[1] = Volume of distribution at steady state in monkey at 5 mg/kg, iv or 30 mg/kg, po; format: ADME, organism-based, Macaca mulatta; conditions: rhesus monkey, in vivo, read-out: Vdss
[2] = Half life in Beagle dog at 5 mg/kg, iv or 30 mg/kg, po; format: ADME, organism-based, Canis lupus familiaris; conditions: in vivo
[3] = AUC in Beagle dog at 5 mg/kg, iv or 30 mg/kg, po; format: ADME, organism-based, Canis lupus familiaris; conditions: plasma
[4] = Volume of distribution at steady state in Beagle dog at 5 mg/kg, iv or 30 mg/kg, po; format: ADME, organism-based, Canis lupus familiaris; conditions: in vivo, read-out: Vdss
[5] = AUC in monkey at 5 mg/kg, iv or 30 mg/kg, po; format: ADME, organism-based, Macaca mulatta; conditions: rhesus monkey, plasma
[6] = Renal clearance in Beagle dog at 5 mg/kg, iv or 30 mg/kg, po; format: ADME, organism-based, Canis lupus familiaris, Kidney; conditions: in vivo, read-out: CL_renal
[7] = Renal clearance in monkey at 5 mg/kg, iv or 30 mg/kg, po; format: ADME, organism-based, Macaca mulatta, Kidney; conditions: rhesus monkey, in vivo; read-out: CL_renal
[8] = Plasma clearance in Beagle dog at 5 mg/kg, iv or 30 mg/kg, po; format: ADME, organism-based, Canis lupus familiaris
[9] = Cmax in monkey at 5 mg/kg, iv or 30 mg/kg, po; format: ADME, organism-based, Macaca mulatta; conditions: rhesus monkey, in vivo
[10] = Bioavailability in Beagle dog at 5 mg/kg, iv or 30 mg/kg, po; format: ADME, organism-based, Canis lupus familiaris; conditions: in vivo
[11] = Plasma clearance in monkey at 5 mg/kg, iv or 30 mg/kg, po; format: ADME, organism-based, Macaca mulatta; conditions: rhesus monkey
[12] = Cmax in Beagle dog at 5 mg/kg, iv or 30 mg/kg, po; format: ADME, organism-based, Canis lupus familiaris; conditions: in vivo
[13] = Bioavailability in monkey at 5 mg/kg, iv or 30 mg/kg, po; format: ADME, organism-based, Macaca mulatta; conditions: rhesus monkey, in vivo
[14] = Tmax in Beagle dog at 5 mg/kg, iv or 30 mg/kg, po; format: ADME, organism-based, Canis lupus familiaris; conditions: in vivo
[15] = Tmax in monkey at 5 mg/kg, iv or 30 mg/kg, po; format: ADME, organism-based, Macaca mulatta; conditions: rhesus monkey, in vivo
[16] = Half life in monkey at 5 mg/kg, iv or 30 mg/kg, po; format: ADME, organism-based, Macaca mulatta; conditions: rhesus monkey, in vivo
Transporter = Transporter (Rattus norvegicus, UniProt Q63380); experiment: biochemical
Chain of Transporter (Q63380 whole entry): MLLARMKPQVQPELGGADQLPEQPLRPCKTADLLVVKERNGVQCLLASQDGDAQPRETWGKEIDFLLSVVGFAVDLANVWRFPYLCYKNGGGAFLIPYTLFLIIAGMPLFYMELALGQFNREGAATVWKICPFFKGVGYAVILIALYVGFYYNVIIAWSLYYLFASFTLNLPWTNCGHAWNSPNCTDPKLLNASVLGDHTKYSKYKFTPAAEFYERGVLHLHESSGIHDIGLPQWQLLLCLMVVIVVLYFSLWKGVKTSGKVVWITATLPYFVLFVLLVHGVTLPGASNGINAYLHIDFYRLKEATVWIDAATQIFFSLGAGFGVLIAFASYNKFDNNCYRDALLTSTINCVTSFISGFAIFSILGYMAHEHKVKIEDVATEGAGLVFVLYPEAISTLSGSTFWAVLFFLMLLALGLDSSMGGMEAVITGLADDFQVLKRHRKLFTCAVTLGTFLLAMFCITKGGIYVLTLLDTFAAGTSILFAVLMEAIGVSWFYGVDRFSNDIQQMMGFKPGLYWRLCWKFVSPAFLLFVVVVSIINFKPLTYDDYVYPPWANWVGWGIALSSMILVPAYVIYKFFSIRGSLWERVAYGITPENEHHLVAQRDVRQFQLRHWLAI
Description: Displacement of Levo[ring-2,5,6-3H]norepinephrine from rat synaptosomal NET expressed in HEK293 cells by microplate scintillation counter

[17] = biological target: Sodium-dependent serotonin transporter (Rattus norvegicus, UniProt P31652); format: cell-based, HEK293
Chain of Sodium-dependent serotonin transporter (Rattus norvegicus, UniProt P31652) (P31652 whole entry): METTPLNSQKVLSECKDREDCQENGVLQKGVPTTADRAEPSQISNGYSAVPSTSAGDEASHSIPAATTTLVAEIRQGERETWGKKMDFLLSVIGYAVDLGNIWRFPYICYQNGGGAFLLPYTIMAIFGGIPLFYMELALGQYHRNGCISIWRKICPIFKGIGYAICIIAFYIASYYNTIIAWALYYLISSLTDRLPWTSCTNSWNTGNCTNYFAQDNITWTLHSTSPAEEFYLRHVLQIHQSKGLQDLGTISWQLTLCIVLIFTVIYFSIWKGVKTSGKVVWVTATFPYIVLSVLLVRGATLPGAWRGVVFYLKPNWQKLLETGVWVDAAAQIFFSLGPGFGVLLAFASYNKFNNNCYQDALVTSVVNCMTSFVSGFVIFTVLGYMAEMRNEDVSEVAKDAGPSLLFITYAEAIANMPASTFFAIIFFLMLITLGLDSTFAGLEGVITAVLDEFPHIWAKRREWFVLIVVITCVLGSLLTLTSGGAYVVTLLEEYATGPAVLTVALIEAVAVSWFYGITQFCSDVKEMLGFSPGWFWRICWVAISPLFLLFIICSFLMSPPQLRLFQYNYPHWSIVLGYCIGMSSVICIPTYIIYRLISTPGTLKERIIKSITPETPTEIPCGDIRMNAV

Rattus norvegicus [18] = experiment: Antinociceptive activity in CD rat assessed as reduction in number of hind paw flinching at 60 mg/kg, po by formalin test; format: functional; design: scale not given: the % may be the effect or the level left
[19] = biological target: Sodium-dependent dopamine transporter (Rattus norvegicus, UniProt P23977); experiment: biochemical
Chain of Sodium-dependent dopamine transporter (Rattus norvegicus, UniProt P23977) (P23977 whole entry): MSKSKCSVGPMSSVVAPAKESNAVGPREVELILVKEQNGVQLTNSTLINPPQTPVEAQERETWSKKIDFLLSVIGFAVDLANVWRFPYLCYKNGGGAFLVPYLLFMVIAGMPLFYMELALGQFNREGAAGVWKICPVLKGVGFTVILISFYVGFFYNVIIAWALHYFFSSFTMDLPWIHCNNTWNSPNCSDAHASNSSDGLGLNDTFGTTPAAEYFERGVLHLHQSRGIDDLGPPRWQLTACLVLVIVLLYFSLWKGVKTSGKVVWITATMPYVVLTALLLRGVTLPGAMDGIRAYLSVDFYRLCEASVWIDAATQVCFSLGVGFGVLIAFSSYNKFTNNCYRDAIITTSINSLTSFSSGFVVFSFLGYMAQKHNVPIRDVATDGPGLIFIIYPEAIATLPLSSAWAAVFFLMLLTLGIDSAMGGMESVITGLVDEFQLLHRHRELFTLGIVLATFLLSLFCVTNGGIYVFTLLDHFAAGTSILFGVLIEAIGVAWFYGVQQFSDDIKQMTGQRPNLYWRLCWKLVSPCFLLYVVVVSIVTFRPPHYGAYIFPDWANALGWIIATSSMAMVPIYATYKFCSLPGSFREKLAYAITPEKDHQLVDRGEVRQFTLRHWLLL
Description: Displacement of 3,4-[ring-2,5,6-3H]dihydroxyphenylethylamine from rat synaptosomal DAT expressed in HEK293 cells by microplate scintillation counter

[20] = biological target: Sodium-dependent serotonin transporter (Homo sapiens, UniProt P31645); experiment: biochemical
Chain of Sodium-dependent serotonin transporter (Homo sapiens, UniProt P31645) (P31645 whole entry): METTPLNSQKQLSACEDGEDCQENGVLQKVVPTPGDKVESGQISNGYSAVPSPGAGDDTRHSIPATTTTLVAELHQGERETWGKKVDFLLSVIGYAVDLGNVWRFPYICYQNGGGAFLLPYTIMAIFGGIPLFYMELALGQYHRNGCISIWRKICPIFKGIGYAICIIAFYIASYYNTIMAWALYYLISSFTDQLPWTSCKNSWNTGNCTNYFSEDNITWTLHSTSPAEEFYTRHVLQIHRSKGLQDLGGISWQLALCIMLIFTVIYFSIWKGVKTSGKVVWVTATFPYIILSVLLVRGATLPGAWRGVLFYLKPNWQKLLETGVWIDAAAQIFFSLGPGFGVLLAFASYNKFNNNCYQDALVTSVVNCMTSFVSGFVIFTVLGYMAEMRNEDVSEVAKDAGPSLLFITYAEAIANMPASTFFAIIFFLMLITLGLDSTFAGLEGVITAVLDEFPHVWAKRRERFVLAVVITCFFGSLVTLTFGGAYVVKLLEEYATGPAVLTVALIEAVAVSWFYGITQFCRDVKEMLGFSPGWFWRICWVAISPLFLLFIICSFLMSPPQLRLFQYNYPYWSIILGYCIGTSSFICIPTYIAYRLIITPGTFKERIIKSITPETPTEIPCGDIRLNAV
Description: Displacement of [alpha,beta-3H(N)]-5-hydroxytryptamine from human cloned SERT expressed in HEK293 cells by microplate scintillation counter

[21] = Metabolic stability in human liver microsomes assessed as systemic clearance at 1 uM after 15 mins by LC-MS/MS analysis; format: ADME, Microsome
[22] = biological target: Sodium-dependent dopamine transporter (Homo sapiens, UniProt Q01959); experiment: biochemical
Chain of Sodium-dependent dopamine transporter (Homo sapiens, UniProt Q01959) (Q01959 whole entry): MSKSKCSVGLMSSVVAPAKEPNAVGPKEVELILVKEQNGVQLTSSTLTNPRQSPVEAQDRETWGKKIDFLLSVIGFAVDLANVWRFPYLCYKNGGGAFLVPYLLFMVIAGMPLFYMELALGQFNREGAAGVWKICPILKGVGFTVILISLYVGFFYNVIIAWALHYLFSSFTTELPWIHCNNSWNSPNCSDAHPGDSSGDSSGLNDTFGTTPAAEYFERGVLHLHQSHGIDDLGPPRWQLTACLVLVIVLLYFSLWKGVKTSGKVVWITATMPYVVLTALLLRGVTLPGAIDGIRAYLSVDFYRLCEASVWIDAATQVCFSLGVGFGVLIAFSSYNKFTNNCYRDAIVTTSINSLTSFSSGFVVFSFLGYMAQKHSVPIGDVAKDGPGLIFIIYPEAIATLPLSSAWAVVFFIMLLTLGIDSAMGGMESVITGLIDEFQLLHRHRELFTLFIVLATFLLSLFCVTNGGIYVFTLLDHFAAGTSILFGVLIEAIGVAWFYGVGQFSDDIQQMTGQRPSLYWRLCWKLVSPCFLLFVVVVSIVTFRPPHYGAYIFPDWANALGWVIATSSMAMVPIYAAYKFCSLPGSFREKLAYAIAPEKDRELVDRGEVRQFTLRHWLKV
Description: Displacement of 3,4-[ring-2,5,6-3H]dihydroxyphenylethylamine from human cloned DAT expressed in HEK293 cells by microplate scintillation counter

[23] = biological target: Sodium-dependent noradrenaline transporter (Homo sapiens, UniProt P23975); experiment: biochemical
Chain of Sodium-dependent noradrenaline transporter (P23975 whole entry): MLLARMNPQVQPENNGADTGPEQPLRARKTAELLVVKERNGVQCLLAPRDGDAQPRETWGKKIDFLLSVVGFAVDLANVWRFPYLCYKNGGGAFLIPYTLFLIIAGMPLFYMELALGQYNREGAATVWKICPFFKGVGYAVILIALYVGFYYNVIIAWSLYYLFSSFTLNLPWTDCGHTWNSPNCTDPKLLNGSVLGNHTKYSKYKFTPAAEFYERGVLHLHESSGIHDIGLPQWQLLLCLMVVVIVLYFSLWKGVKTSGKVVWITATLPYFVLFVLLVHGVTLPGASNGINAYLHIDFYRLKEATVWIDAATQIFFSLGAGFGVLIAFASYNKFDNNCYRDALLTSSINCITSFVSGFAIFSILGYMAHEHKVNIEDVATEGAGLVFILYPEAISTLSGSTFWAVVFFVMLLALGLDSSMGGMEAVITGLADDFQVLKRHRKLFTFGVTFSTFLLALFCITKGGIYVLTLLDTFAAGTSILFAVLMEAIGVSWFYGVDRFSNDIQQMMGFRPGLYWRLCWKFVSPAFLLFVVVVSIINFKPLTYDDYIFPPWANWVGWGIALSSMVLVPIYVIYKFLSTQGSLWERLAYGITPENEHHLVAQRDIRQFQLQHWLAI
Description: Displacement of Levo[ring-2,5,6-3H]norepinephrine from human cloned NET expressed in HEK293 cells by microplate scintillation counter

[24] = Lipophilicity, log D of the compound; format: physicochemical; conditions: octanol/water
[25] = Partition coefficient, log P of the compound; format: physicochemical; conditions: octanol/water
[26] = Metabolic stability in rat liver microsomes assessed as systemic clearance at 1 uM after 15 mins by LC-MS/MS analysis; format: ADME, Microsome
[27] = Apparent elimination half life in Sprague-Dawley rat at 10 mg/kg, po; format: ADME, organism-based; design: dose 10 mg/kg, route oral; conditions: in vivo, read-out: beta t1/2 (converted)
Rattus norvegicus [28] = species: Rattus norvegicus; experiment: Reversal of pin-prick-induced neuropathic mechanical hyperalgesia in Harlan Sprague-Dawley rat sciatic nerve ligation model; format: functional, organism-based
in vivo [29] = conditions: Sprague-Dawley, rat, brain/plasma, po, 10 mg/kg
Description: Ratio of drug level in brain to plasma in Sprague-Dawley rat at 10 mg/kg, po after 1 hr

in vivo [30] = conditions: Sprague-Dawley, rat, brain/plasma, po, 10 mg/kg; remark: listed apart in the source
Description: Ratio of drug level in brain to plasma in Sprague-Dawley rat at 10 mg/kg, po after 4 hrs

[31] = Tmax in Sprague-Dawley rat at 10 mg/kg, po; format: ADME, organism-based; design: dose 10 mg/kg, route oral; conditions: in vivo
[32] = Cmax in Sprague-Dawley rat at 10 mg/kg, po; format: ADME, organism-based; design: dose 10 mg/kg, route oral; conditions: in vivo
[33] = Plasma clearance in Sprague-Dawley rat at 2.5 mg/kg, iv; format: ADME, organism-based; design: dose 2.5 mg/kg, route intravenous
Rattus norvegicus [34] = experiment: Antinociceptive activity in CD rat assessed as reduction in number of hind paw flinching at 100 mg/kg, po by formalin test; format: functional, organism-based; design: dose 100 mg/kg
[35] = Half life in Sprague-Dawley rat at 2.5 mg/kg, iv; format: ADME, organism-based; design: dose 2.5 mg/kg, route intravenous; conditions: in vivo
[36] = Volume of distribution in Sprague-Dawley rat at 2.5 mg/kg, iv; format: ADME, organism-based; design: dose 2.5 mg/kg, route intravenous; conditions: in vivo
[37] = Volume of distribution at steady state in Sprague-Dawley rat at 2.5 mg/kg, iv; format: ADME, organism-based; design: dose 2.5 mg/kg, route intravenous; conditions: in vivo, read-out: Vdss
[38] = Mean residence time in Sprague-Dawley rat at 2.5 mg/kg, iv; format: ADME, organism-based; design: dose 2.5 mg/kg, route intravenous; conditions: in vivo
[39] = Bioavailability in Sprague-Dawley rat at 2.5 mg/kg, iv; format: ADME, organism-based; conditions: in vivo
[40] = AUC in Sprague-Dawley rat at 10 mg/kg, po; format: ADME, organism-based; design: dose 10 mg/kg, route oral; conditions: plasma
[41] = AUC in Sprague-Dawley rat at 2.5 mg/kg, iv; format: ADME, organism-based; design: dose 2.5 mg/kg, route intravenous; conditions: plasma
[42] = Apparent oral clearance in Sprague-Dawley rat at 10 mg/kg, po; format: ADME, organism-based; design: dose 10 mg/kg, route oral; conditions: in vivo

Description for physchem: Dissociation constant, pKa of the compound

Structure (SMILES) | Papp A→B (in vitro) [×10⁻⁶ cm/s] | IC50 [20] [nM] | CLhep predicted at 1 µM [21] [mL/min/kg] | IC50 [22] [nM] | IC50 [23] [nM] | logD [24] | pKa (physchem) | logP [25] | CLhep predicted at 1 µM [26] [mL/min/kg] | IC50 (Transporter) [nM] | IC50 [17] [nM] | Activity (Rattus norvegicus [18]) [%] | IC50 [19] [nM] | other results
C=C(F)CN(CC)C(=O)[C@@]1(c2cccs2)C[C@H]1CN.Cl | – | – | – | – | – | – | – | – | – | – | – | – | – | Vd [1]: 4.4 L/kg; half-life [2]: 3.5 h; AUC [3]: 47500 ng·h/mL; Vd [4]: 2.4 L/kg; AUC [5]: 9050 ng·h/mL; CL renal [6]: 2.2 mL/min/kg; CL renal [7]: 6 mL/min/kg; clearance [8]: 10.8 mL/min/kg; Cmax [9]: 2440 ng/mL; bioavailability [10]: 109%; clearance [11]: 34 mL/min/kg; Cmax [12]: 5570 ng/mL; bioavailability [13]: 70%; Tmax [14]: 1.2 h; Tmax [15]: 2.3 h; half-life [16]: 4.3 h
C=CCN(CC)C(=O)[C@@]1(c2ccsc2)C[C@H]1CN | – | – | – | – | – | – | – | – | – | 6.4 | 27 | 56 | > 10000 | –
CCN(CC)C(=O)[C@]1(c2ccccc2)C[C@H]1CN | – | – | 5 | – | – | -0.2 | 9.6 | 1.6 | 24 | 16 | 28 | 56 | 20000 | half-life [27]: 1.3 h; Activity (Rattus norvegicus [28]): Dose-dependent effect; Kp at 1 h (in vivo [29]): 0.42; Kp at 4 h (in vivo [30]): 0.86; Tmax [31]: 0.3 h; Cmax [32]: 232 ng/mL; clearance [33]: 58 mL/min/kg; Activity (Rattus norvegicus [34]): Active; half-life [35]: 0.8 h; Vd [36]: 4.3 L/kg; Vd [37]: 2 L/kg; MRT [38]: 0.52 h; bioavailability [39]: 16%; AUC [40]: 566 ng·h/mL; AUC [41]: 897 ng·h/mL; CL/F [42]: 294 mL/min/kg

More lines, main results first:

Papp A→B (in vitro) [×10⁻⁶ cm/s] | IC50 [20] [nM] | CLhep predicted at 1 µM [21] [mL/min/kg] | IC50 [22] [nM] | IC50 [23] [nM] | logD [24] | pKa (physchem) | logP [25] | CLhep predicted at 1 µM [26] [mL/min/kg] | Structure (SMILES) | IC50 (Transporter) [nM] | IC50 [17] [nM] | Activity (Rattus norvegicus [18]) [%] | IC50 [19] [nM] | other results
1 | – | – | – | – | – | – | – | – | C[C@H]1O[C@@H](O[C@H]2[C@@H](O)C[C@H](O[C@H]3[C@@H](O)C[C@H](O[C@H]4CC[C@@]5(C)[C@H](CC[C@@H]6[C@@H]5C[C@@H](O)[C@]5(C)[C@@H](C7=CC(=O)OC7)CC[C@]65O)C4)O[C@@H]3C)O[C@@H]2C)C[C@H](O)[C@@H]1O [DIGOXIN] | – | – | – | – | –
25 | 26 | 2.6 | > 10000 | 6 | 0.2 | 9.3 | 1.5 | 43 | C#CCN(CC#C)C(=O)[C@@]1(c2cccs2)C[C@H]1CN | – | – | – | – | –
6.4 | 16 | 7 | > 10000 | 13 | -0.4 | 9.4 | 1.6 | 47 | C=CCN(Cc1nccs1)C(=O)[C@@]1(c2cccs2)C[C@H]1CN | – | – | – | – | –
